In patent US11718637B2, “Prodrugs of 4′-C-substituted-2-halo-2′- deoxyadenosine nucleosides and methods of making and using the same” (Gilead Sciences, Inc., priority 2020, dated 2023):
In brackets after ≈: the same amount, converted by molar mass. Where two headings read alike, the source gives them in different places.

What was measured:
HIV-1 (IIIB) = test: Antiviral assay in MT-4 cells; format: cell-based
Procedure: (§1) Compounds were tested in a high-throughput 384-well assay format for their ability to inhibit the replication of HIV-1 (IIIB) in MT-4 cells. Compounds were serially diluted (1:3) in DMSO on 384-well polypropylene plates and further diluted 200-fold into complete RPMI media (10% FBS, 1% P/S) using the Biotek Micro Flow and Labcyte ECHO acoustic dispenser. Each plate contained up to 8 test compounds, with negative (No Drug Control) and 5 μM AZT positive controls. MT-4 cells were pre-infected with 10 μL of either RPMI (mock-infected) or a fresh 1:250 dilution of HIV-1 IIIB concentrated virus stock. Infected and uninfected MT-4 cells were further diluted in complete RPMI media and added to each plate using a Micro Flow dispenser. After 5 days incubation in a humidified and temperature-controlled incubator (37° C.), Cell Titer Glo (Promega) was added to the assay plates and chemiluminescence read using an Envision plate-reader. EC50 values were defined as the compound concentration that causes a 50% decrease in luminescence signal, and were calculated using a sigmoidal dose-response model to generate curve fits.

[1] = Cytotoxicity assay in MT-4 cells; format: cell-based; settings: human; uninfected MT-4 cells, 5 days incubation, Cell Titer Glo
Procedure: as §1, with “fits. Assays were performed as above except uninfected MT-4 cells were added to each well containing test compound. In addition, 10 μM puromycin was added to the last column of each assay plate to assess a base level of cytotoxicity.” for “fits.”

[2] = Kinetic solubility analysis (CLND); format: physicochemical; settings: 24.2 °C, kinetic from dmso stock, from DMSO stocks, 1.0% DMSO, 24-hour incubation at ambient temperature, medium (0.1N HCl or PBS 7.4) not stated
Procedure: Kinetic Solubility Analysis (CLND)
0.1N HCl: Hydrochloric acid, 0.1N standardized solution.
1×PBS, 7.4: Phosphate Buffered Saline solution 10×, PBS 50 mL was added to approximately 450 mL HPLC grade H2O. The volume of the solution was then adjusted to 500 mL for a total dilution factor of 1:10 and a final PBS concentration of 1×. The pH of the final solution was measured and found to be 7.4.
Kinetic Solubility from DMSO Stocks: 100-fold dilutions of each DMSO stock solution were prepared in singleton by combining 3 μL of DMSO stock with 297 μL of the appropriate media in a Millipore solubility filter plate with a […] polycarbonate filter membrane using Hamilton Starlet liquid handling. The final DMSO concentration is 1.0% and maximum theoretical compound concentration is 100 μM (assuming stock concentration of 10 mM). The filter plate was sealed. Following 24-hour incubation at ambient temperature (24.2-27.5° C.), the samples were vacuum filtered and the filtrates were collected in a 96 well polypropylene plate for analysis. The collection plate was sealed for analysis.
Filtrates were injected into the nitrogen detector for quantification. The results are reported here in μM.
Calculation of Results: The equimolar nitrogen response of the detector was calibrated using standards which spanned the dynamic range of the instrument from […] nitrogen. The filtrates were quantified with respect to this calibration curve. The calculated solubility values were corrected for background nitrogen present in the DMSO and the media used to prepare the samples. All reported values for compounds containing adjacent nitrogen atoms in a ring structure should be increased by ˜25%. […] The solubility results presented assume that the samples were free of nitrogen containing impurities and were stable under the assay conditions.

[3] = Human immunodeficiency virus 1, MT4, 120 h, HIV-1 IIIB replication in MT-4 cells, 5 days incubation, Cell Titer Glo, read-out: EC50

| Compound | EC50 (HIV-1 (IIIB); [3]) [nM] | CC50 at 5 days [1] [nM] | solubility kinetic at 24 h [2] [µM] | EC50 (HIV-1 (IIIB); Human immunodeficiency virus 1, IIIB, MT4, 120 h) [nM] |
| --- | --- | --- | --- | --- |
| C#C[C@]1(COC(=O)CCCCCCCCCCCCC)O[C@@H](n2cnc3c(N)nc(F)nc32)C[C@@H]1OC(=O)CCCCCCCCCCCCC [Compound 10, (2R,3S,5R)-5-(6-amino-2-fluoro-9H-purin-9-yl)-2-ethynyl-2-((tetradecanoyloxy)methyl)tetrahydrofuran-3-yl tetradecanoate] | > 500 | > 50000 | < 1 | – |
| C#C[C@]1(CO)O[C@@H](n2cnc3c(NC(=O)OCCCCCCCCCCCCCCCC)nc(F)nc32)C[C@@H]1O [Compound 3, Hexadecyl (9-((2R,4S,5R)-5-ethynyl-4-hydroxy-5-(hydroxymethyl)tetrahydrofuran-2-yl)-2-fluoro-9H-purin-6-yl)carbamate] | 60 | 11800 | – | – |
| C#C[C@]1(COC(=O)OCCCCCCCCCCCC)O[C@@H](n2cnc3c(N)nc(F)nc32)C[C@@H]1O [Compound 12, ((2R,3S,5R)-5-(6-amino-2-fluoro-9H-purin-9-yl)-2-ethynyl-3-hydroxytetrahydrofuran-2-yl)methyl dodecyl carbonate] | 6 | 17000 | < 1 | – |
| C#C[C@]1(COC(=O)c2ccccc2COC(=O)CCCCCCCCCCCCCCC)O[C@@H](n2cnc3c(N)nc(F)nc32)C[C@@H]1O [Compound 5] | 8 | > 50000 | < 1 | – |
| C#C[C@]1(COC(=O)CCCCCCCCCCCCCCCCC)O[C@@H](n2cnc3c(N)nc(F)nc32)C[C@@H]1O [Compound 11, ((2R,3S,5R)-5-(6-amino-2-fluoro-9H-purin-9-yl)-2-ethynyl-3-hydroxytetrahydrofuran-2-yl)methyl stearate] | 7 | > 41500 | < 1 | – |
| C#C[C@]1(COC(=O)c2ccccc2COC(=O)CCCCCCCCCCCCCCC)O[C@@H](n2cnc3c(N)nc(F)nc32)C[C@@H]1OC(=O)c1ccccc1COC(=O)CCCCCCCCCCCCCCC [Compound 7, (2R,3S,5R)-5-(6-amino-2-fluoro-9H-purin-9-yl)-2-ethynyl-2-(((2-((palmitoyloxy)methyl)benzoyl)oxy)methyl)tetrahydrofuran-3-yl 2-((palmitoyloxy)methyl)benzoate] | > 500 | > 50000 | 2 (≈ 2.08 µg/mL) | – |
| C#C[C@]1(COC(=O)C(C)C)O[C@@H](n2cnc3c(N)nc(F)nc32)C[C@@H]1OC(=O)C(C)C [Compound 1, (2R,3S,5R)-5-(6-amino-2-fluoro-9H-purin-9-yl)-2-ethynyl-2-((isobutyryloxy)methyl)tetrahydrofuran-3-yl isobutyrate] | 7 | 37300 | 6.6 (≈ 2.86 µg/mL) | – |
| C#C[C@]1(CO)O[C@@H](n2cnc3c(N)nc(F)nc32)C[C@@H]1OC(=O)c1ccccc1COC(=O)CCCCCCCCCCCCCCC [Compound 6, (2R,3S,5R)-5-(6-amino-2-fluoro-4,5-dihydro-9H-purin-9-yl)-2-ethynyl-2-(hydroxymethyl)tetrahydrofuran-3-yl 2-((palmitoyloxy)methyl)benzoate] | 29 | > 50000 | < 1 | – |
| C#C[C@]1(COC(=O)CCCCCC)O[C@@H](n2cnc3c(NC(=O)CCCCCC)nc(F)nc32)C[C@@H]1OC(=O)CCCCCC [Compound 18, (2R,3S,5R)-2-ethynyl-5-(2-fluoro-6-heptanamido-9H-purin-9-yl)-2-((heptanoyloxy)methyl)tetrahydrofuran-3-yl heptanoate-3-yl 2-((palmitoyloxy)methyl)benzoate] | 20 | > 10100 | 1.5 (≈ 0.945 µg/mL) | – |
| C#C[C@]1(COC(=O)CC(C)(C)c2c(C)cc(C)cc2OC(C)=O)O[C@@H](n2cnc3c(N)nc(F)nc32)C[C@@H]1OC(=O)CC(C)(C)c1c(C)cc(C)cc1OC(C)=O [Compound 16, ((2R,3S,5R)-3-((3-(2-acetoxy-4,6-dimethylphenyl)-3-methylbutanoyl)oxy)-5-(6-amino-2-fluoro-9H-purin-9-yl)-2-ethynyltetrahydrofuran-2-yl)methyl 3-(2-acetoxy-4,6-dimethylphenyl)-3-methylbutanoate] | 10 | 15700 | < 1 | – |
| C#C[C@]1(CO)O[C@@H](n2cnc3c(NC(=O)OCCCCCCCCCCCCCC)nc(F)nc32)C[C@@H]1O [Compound 2, Tetradecyl (9-((2R,4S,5R)-5-ethynyl-4-hydroxy-5-(hydroxymethyl)tetrahydrofuran-2-yl)-2-fluoro-9H-purin-6-yl)carbamate] | 70 | 13400 | 1.2 (≈ 0.64 µg/mL) | – |
| C#C[C@]1(COC(=O)CC(C)(C)c2c(C)cc(C)cc2OC(C)=O)O[C@@H](n2cnc3c(N)nc(F)nc32)C[C@@H]1O [Compound 14, ((2R,3S,5R)-5-(6-amino-2-fluoro-9H-purin-9-yl)-2-ethynyl-3-hydroxytetrahydrofuran-2-yl)methyl 3-(2-acetoxy-4,6-dimethylphenyl)-3-methylbutanoate] | 4 | > 21600 | 37 (≈ 20 µg/mL) | – |
| C#C[C@]1(CO[P@@](=O)(N[C@@H](C)C(=O)OCC(CC)CC)Oc2ccccc2)O[C@@H](n2cnc3c(N)nc(F)nc32)C[C@@H]1O (single isomer, unassigned) [Compound 4] | – | – | – | 8 |
| C#C[C@]1(COC(=O)OCCCCCCCCCCCC)O[C@@H](n2cnc3c(N)nc(F)nc32)C[C@@H]1OC(=O)OCCCCCCCCCCCC [Compound 13, ((2R,3S,5R)-5-(6-amino-2-fluoro-9H-purin-9-yl)-3-(((dodecyloxy)carbonyl)oxy)-2-ethynyltetrahydrofuran-2-yl)methyl dodecyl carbonate] | > 500 | 5500 | < 1 | – |
| C#C[C@]1(CO)O[C@@H](n2cnc3c(N)nc(F)nc32)C[C@@H]1OC(=O)CCCCCCCCCCCCC [Compound 9, (2R,3S,5R)-5-(6-amino-2-fluoro-9H-purin-9-yl)-2-ethynyl-2-(hydroxymethyl)tetrahydrofuran-3-yl tetradecanoate] | 4 | > 23000 | < 1 | – |
| C#C[C@]1(COC(=O)CCCCCCCCCCCCC)O[C@@H](n2cnc3c(N)nc(F)nc32)C[C@@H]1O [Compound 8, ((2R,3S,5R)-5-(6-amino-2-fluoro-9H-purin-9-yl)-2-ethynyl-3-hydroxytetrahydrofuran-2-yl)methyl tetradecanoate] | 3 | > 20200 | < 1 | – |
| C#C[C@]1(COC(=O)CCCCCC)O[C@@H](n2cnc3c(N)nc(F)nc32)C[C@@H]1OC(=O)CCCCCC [Compound 17, (2R,3S,5R)-5-(6-amino-2-fluoro-9H-purin-9-yl)-2-ethynyl-2-((heptanoyloxy)methyl)tetrahydrofuran-3-yl heptanoate] | 7 | > 20900 | < 1 | – |
| C#C[C@]1(CO)O[C@@H](n2cnc3c(N)nc(F)nc32)C[C@@H]1OC(=O)CC(C)(C)c1c(C)cc(C)cc1OC(C)=O [Compound 15, (2R,3S,5R)-5-(6-amino-2-fluoro-9H-purin-9-yl)-2-ethynyl-2-(hydroxymethyl)tetrahydrofuran-3-yl 3-(2-acetoxy-4,6-dimethylphenyl)-3-methylbutanoate] | 3 | 11800 | 25.1 (≈ 13.5 µg/mL) | – |
